According to patent US20190016747A1, “PURIFIED REBAUDIOSIDE A” (SGF Holdings, LLC, priority 2004, published 2019):
Read-outs that look alike come from different tables or passages of the source.

Experiment: Solubility in water by incremental addition of water until complete solubilization
Format: physicochemical
Settings: for % Solubility (solids (g)/ final volume (ml)): in water at room temperature, Example 4 samples
Experimental: In Example 4, RA89.95 Stevia starting material was processed through two reflux stages of the industrial embodiment of the invention, and a sample of the final product of the industrial process used as starting material in a stirred wash stage of the laboratory embodiment of the invention. Specifically, 100 kilograms of RA90 Stevia starting material were mixed with 400 liters of 90Et/10W solvent (this experiment was conducted while the starting material assay was still being perfected) and refluxed for 1 hour at 80° C., then cooled (chilled water in tank jacket) and allowed to stand for a minimum of 2 hours with mixture temperature maintained between 4° C. and 20° C. The mixture was filtered through a centrifugal decanter, and the retentate added to 400 liters of 90Et/10W solvent and refluxed for 1 hour at 80° C. The mixture from the second reflux was filtered through a centrifugal decanter. The retentate of the filtering of the second reflux mixture was mixed with water until the volume of the mixture was approximately twice the mass of the retentate (e.g., 350 kg retentate in a total mixture volume of 700 liters). The mixture in water was heated to 80° C. for approximately one hour to purge any residual ethanol from the mixture, then the mixture was spray-dried. There was no reflux in absolute ethanol prior to spray drying. The spray-dried product was weighed and a 0.1 gram sample was analyzed for rebaudioside A content using the HPLC Method described above. Five grams of the spray-dried material was mixed with 20 mls of absolute ethanol in a 100 ml round-bottomed flask and refluxed for 1 hour at 80° C. (“refluxed sample”) and then allowed to cool to room temperature. A second 5 gram sample of the spray-dried material was mixed with 20 mls of absolute ethanol and stirred for 15 minutes at room temperature (“stirred sample”). Both samples were filtered over a Whatman GF/A glass fiber filter (1.6 μm pore size) and the retained solids of both samples were dried in a blower oven at 80° C. until the solids maintained a constant weight. 1 gram each of the refluxed sample and of the stirred sample were placed in 15 ml glass centrifuge tubes. Water was added to each tube in 0.1 ml increments and the mixture thoroughly shaken to ensure maximum solubilization. Incremental aliquots of water were added until complete solubilization was achieved as evidenced by the lack of any observable suspended solids in the solution. The final volume at which complete solubilization occurred in each sample was noted.

| Structure (SMILES) | % Solubility (solids (g)/ final volume (ml)) [%] | solubility in water | other results |
| --- | --- | --- | --- |
| C=C1C[C@@]23CC[C@H]4[C@@](C)(CCC[C@@]4(C)C(=O)O[C@@H]4O[C@H](CO)[C@@H](O)[C@H](O)[C@H]4O)[C@@H]2CC[C@]1(O[C@@H]1O[C@H](CO)[C@@H](O)[C@H](O[C@@H]2O[C@H](CO)[C@@H](O)[C@H](O)[C@H]2O)[C@H]1O[C@@H]1O[C@H](CO)[C@@H](O)[C@H](O)[C@H]1O)C3 [1 hour reflux in 100% ethanol, rebaudioside A] | 40 |  | % Solubility (solids (g)/ final volume (ml)) (listed as 1 hour reflux in absolute ethanol): 40% |
| C=C1C[C@@]23CC[C@H]4[C@@](C)(CCC[C@@]4(C)C(=O)O[C@@H]4O[C@H](CO)[C@@H](O)[C@H](O)[C@H]4O)[C@@H]2CC[C@]1(O[C@@H]1O[C@H](CO)[C@@H](O)[C@H](O[C@@H]2O[C@H](CO)[C@@H](O)[C@H](O)[C@H]2O)[C@H]1O[C@@H]1O[C@H](CO)[C@@H](O)[C@H](O)[C@H]1O)C3 [final product, rebaudioside A] |  | ~33% |  |
| C=C1C[C@@]23CC[C@H]4[C@@](C)(CCC[C@@]4(C)C(=O)O[C@@H]4O[C@H](CO)[C@@H](O)[C@H](O)[C@H]4O)[C@@H]2CC[C@]1(O[C@@H]1O[C@H](CO)[C@@H](O)[C@H](O[C@@H]2O[C@H](CO)[C@@H](O)[C@H](O)[C@H]2O)[C@H]1O[C@@H]1O[C@H](CO)[C@@H](O)[C@H](O)[C@H]1O)C3 [No 100% ethanol treatment, rebaudioside A] | 2 |  | % Solubility (solids (g)/ final volume (ml)) (listed as 99.6% Reb A purity product): 2% |
| C=C1C[C@@]23CC[C@H]4[C@@](C)(CCC[C@@]4(C)C(=O)O[C@@H]4O[C@H](CO)[C@@H](O)[C@H](O)[C@H]4O)[C@@H]2CC[C@]1(O[C@@H]1O[C@H](CO)[C@@H](O)[C@H](O[C@@H]2O[C@H](CO)[C@@H](O)[C@H](O)[C@H]2O)[C@H]1O[C@@H]1O[C@H](CO)[C@@H](O)[C@H](O)[C@H]1O)C3 [purified rebaudioside A, rebaudioside A] |  | about 33% |  |
| C=C1C[C@@]23CC[C@H]4[C@@](C)(CCC[C@@]4(C)C(=O)O[C@@H]4O[C@H](CO)[C@@H](O)[C@H](O)[C@H]4O)[C@@H]2CC[C@]1(O[C@@H]1O[C@H](CO)[C@@H](O)[C@H](O[C@@H]2O[C@H](CO)[C@@H](O)[C@H](O)[C@H]2O)[C@H]1O[C@@H]1O[C@H](CO)[C@@H](O)[C@H](O)[C@H]1O)C3 [Example 6, rebaudioside A] |  |  | solubility in water (at 25° C.): 59.0% |
| C=C1C[C@@]23CC[C@H]4[C@@](C)(CCC[C@@]4(C)C(=O)O[C@@H]4O[C@H](CO)[C@@H](O)[C@H](O)[C@H]4O)[C@@H]2CC[C@]1(O[C@@H]1O[C@H](CO)[C@@H](O)[C@H](O[C@@H]2O[C@H](CO)[C@@H](O)[C@H](O)[C@H]2O)[C@H]1O[C@@H]1O[C@H](CO)[C@@H](O)[C@H](O)[C@H]1O)C3 [15 minute stir in 100% ethanol, rebaudioside A] | 33 |  | % Solubility (solids (g)/ final volume (ml)) (listed as 15 minute stirred wash in absolute ethanol): 33% |
